Our source for the IC50 and Activity values is ChEMBL document CHEMBL3046060, “Synthesis, molecular docking study, and anticancer activity of triaryl-1,2,4-oxadiazole” (Med Chem Res, 2013).

Where only a bound is given, the exact number is not on record here.

Assay [1] relates to K562. Description: Cytotoxicity against Homo sapiens (human) K562 cells assessed as inhibition of cell proliferation after 24 hr by MTT assay. Type of assay: functional, cell-based. The following applies: K562, 24 h.
The test system of assay [2] is K562. As to the kind of experiment: Cytotoxicity against Homo sapiens (human) K562 cells at 50 uM after 24 hr by MTT assay. The format is functional. (In general: Tetrazolium assays rely on reduction of a dye to a coloured formazan, in cell work by metabolically active cells.)
The subject of assay [3] is MCF7. As to the kind of experiment: Cytotoxicity against Homo sapiens (human) MCF7 cells at 50 uM after 24 hr by MTT assay. Type of assay: functional.
Assay [4] concerns MCF7. As to the kind of experiment: cells. The following applies: Homo sapiens, MCF7, 24 h.
Description: Cytotoxicity against Homo sapiens (human) MCF7 cells assessed as inhibition of cell proliferation after 24 hr by MTT assay

As a reminder, the IC50 is the concentration at which inhibition is half-maximal. In the case of `Clc1ccc(C2=NOC(c3ccc(Cl)cc3)N2c2ccccc2)cc1` (centres undefined), the IC50 came to 22.2 µM in the assay on K562 [1] and 10.1 µM with MCF7 [4]. In addition, the Activity in the assay with K562 [2] and with MCF7 [3] was more than 50% throughout.
Regarding `Fc1ccc(C2ON=C(c3ccc(Cl)cc3)N2c2ccccc2)cc1` (centres undefined), the IC50 with K562 [1] came to 21.7 µM; in the assay with MCF7 [4], 6.5 µM. The Activity in the assay on K562 [2] and in the assay with MCF7 [3] was more than 50% in each case.
As to `Clc1ccc(C2=NOC(c3ccccc3)N2c2ccccc2)cc1` (centres undefined), the IC50 with K562 [1] was 97 µM; in the assay with MCF7 [4], 23.7 µM. The Activity in the assay on K562 [2] and in the assay on MCF7 [3] was more than 50% each time.
As for `Clc1ccc(C2=NOC(c3ccc(Cl)cc3)N2c2ccc(Cl)cc2)cc1` (centres undefined), the IC50 in the assay on K562 [1] was determined as 51.2 µM; in the assay with MCF7 [4] it was 22.6 µM. Also, the Activity in the assay with K562 [2] and in the assay on MCF7 [3] was more than 50% throughout.
Turning to `COc1cccc2c1C(=O)c1c(O)c3c(c(O)c1C2=O)C[C@@](O)(C(=O)CO)C[C@@H]3O[C@H]1C[C@H](N)[C@H](O)[C@H](C)O1` [DOXORUBICIN], the IC50 is 4.49 µM with K562 [1] and more than 100 µM in the assay with MCF7 [4].
Take `CC(=O)O[C@H]1C(=O)[C@@]2(C)[C@H]([C@H](OC(=O)c3ccccc3)[C@]3(O)C[C@H](OC(=O)[C@H](O)[C@@H](NC(=O)c4ccccc4)c4ccccc4)C(C)=C1C3(C)C)[C@]1(OC(C)=O)CO[C@@H]1C[C@@H]2O` [PACLITAXEL]: the IC50 with K562 [1] is more than 100 µM.
